Tested on: PDC 899932-113-R3-J6 complex spheroid viability
Assay: Anticancer human tumor 899932-113-R3-J6-PDC patient-derived melanoma cell line growth inhibition [RAS]
Details: for IC50: curve of first compound; for viability, T/C: stronger effect = lower value
In short: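 Agents were tested in combination matrices in half-log decrements from a top concentration at or near clinical Cmax (10 microM if undetermined). Targets were multi-cell spheroids of tumour lines plus HUVEC and MSC stromal cells.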

[1] = second compound 0.0316 µM, first compound 0.00316 µM
[2] = second compound 0.0316 µM, first compound 0.01 µM
[3] = second compound 0.0316 µM, first compound 0.0316 µM
[4] = second compound 0.0316 µM, first compound 0.1 µM
[5] = second compound 0.0316 µM, first compound 0.316 µM
[6] = second compound 0.0316 µM, first compound 1 µM
[7] = second compound 0.1 µM, first compound 0.00316 µM
[8] = second compound 0.1 µM, first compound 0.01 µM
[9] = second compound 0.1 µM, first compound 0.0316 µM
[10] = second compound 0.1 µM, first compound 0.1 µM
[11] = second compound 0.1 µM, first compound 0.316 µM
[12] = second compound 0.1 µM, first compound 1 µM
[13] = second compound 0.316 µM, first compound 0.00316 µM
[14] = second compound 0.316 µM, first compound 0.01 µM
[15] = second compound 0.316 µM, first compound 0.0316 µM
[16] = second compound 0.316 µM, first compound 0.1 µM
[17] = second compound 0.316 µM, first compound 0.316 µM
[18] = second compound 0.316 µM, first compound 1 µM
[19] = second compound 1 µM, first compound 0.00316 µM
[20] = second compound 1 µM, first compound 0.01 µM
[21] = second compound 1 µM, first compound 0.0316 µM
[22] = second compound 1 µM, first compound 0.1 µM
[23] = second compound 1 µM, first compound 0.316 µM
[24] = second compound 1 µM, first compound 1 µM
[25] = second compound 0.0316 µM, first compound 0.000949 µM
[26] = second compound 0.0316 µM, first compound 0.003 µM
[27] = second compound 0.0316 µM, first compound 0.00949 µM
[28] = second compound 0.0316 µM, first compound 0.03 µM
[29] = second compound 0.0316 µM, first compound 0.0949 µM
[30] = second compound 0.0316 µM, first compound 0.3 µM
[31] = second compound 0.1 µM, first compound 0.000949 µM
[32] = second compound 0.1 µM, first compound 0.003 µM
[33] = second compound 0.1 µM, first compound 0.00949 µM
[34] = second compound 0.1 µM, first compound 0.03 µM
[35] = second compound 0.1 µM, first compound 0.0949 µM
[36] = second compound 0.1 µM, first compound 0.3 µM
[37] = second compound 0.316 µM, first compound 0.000949 µM
[38] = second compound 0.316 µM, first compound 0.003 µM
[39] = second compound 0.316 µM, first compound 0.00949 µM
[40] = second compound 0.316 µM, first compound 0.03 µM
[41] = second compound 0.316 µM, first compound 0.0949 µM
[42] = second compound 0.316 µM, first compound 0.3 µM
[43] = second compound 1 µM, first compound 0.000949 µM
[44] = second compound 1 µM, first compound 0.003 µM
[45] = second compound 1 µM, first compound 0.00949 µM
[46] = second compound 1 µM, first compound 0.03 µM
[47] = second compound 1 µM, first compound 0.0949 µM
[48] = second compound 1 µM, first compound 0.3 µM
[49] = second compound 3.16 µM, first compound 0.000949 µM
[50] = second compound 3.16 µM, first compound 0.003 µM
[51] = second compound 3.16 µM, first compound 0.00949 µM
[52] = second compound 3.16 µM, first compound 0.03 µM
[53] = second compound 3.16 µM, first compound 0.0949 µM
[54] = second compound 3.16 µM, first compound 0.3 µM
[55] = second compound 10 µM, first compound 0.000949 µM
[56] = second compound 10 µM, first compound 0.003 µM
[57] = second compound 10 µM, first compound 0.00949 µM
[58] = second compound 10 µM, first compound 0.03 µM
[59] = second compound 10 µM, first compound 0.0949 µM
[60] = second compound 10 µM, first compound 0.3 µM
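Wherever viability, T/C is given: spheroids exposed to agents for seven days before readout; 100% = DMSO vehicle control wells.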

## C=CC(=O)N1CCN(c2nc(OCC3CCCN3C)nc3c(F)c(-c4nc(N)cc(C)c4C(F)(F)F)c(Cl)cc23)C(C)C1 (stereo not drawn) + C#Cc1c(F)ccc2cc(O)cc(-c3ncc4c(N5CC6CCC(C5)N6)nc(OCC56CCCN5CC(F)C6)nc4c3F)c12
Second compound 0.0316 µM
  IC50: > 1000 nM
Second compound 0.1 µM
  IC50: > 1000 nM
Second compound 0.316 µM
  IC50: > 1000 nM
Second compound 1 µM
  IC50: > 1000 nM
Second compound 3.16 µM
  IC50: > 1000 nM
Second compound 10 µM
  IC50: > 1000 nM
[1]
  viability, T/C: 116%
[2]
  viability, T/C: 107%
[3]
  viability, T/C: 101%
[4]
  viability, T/C: 108%
[5]
  viability, T/C: 110%
[6]
  viability, T/C: 104%
[7]
  viability, T/C: 112%
[8]
  viability, T/C: 106%
[9]
  viability, T/C: 105%
[10]
  viability, T/C: 117%
[11]
  viability, T/C: 111%
[12]
  viability, T/C: 106%
[13]
  viability, T/C: 112%
[14]
  viability, T/C: 115%
[15]
  viability, T/C: 107%
[16]
  viability, T/C: 108%
[17]
  viability, T/C: 117%
[18]
  viability, T/C: 112%
[19]
  viability, T/C: 120%
[20]
  viability, T/C: 108%
[21]
  viability, T/C: 115%
[22]
  viability, T/C: 112%
[23]
  viability, T/C: 125%
[24]
  viability, T/C: 102%
Second compound 3.16 µM, first compound 0.00316 µM
  viability, T/C: 129%
Second compound 3.16 µM, first compound 0.01 µM
  viability, T/C: 113%
Second compound 3.16 µM, first compound 0.0316 µM
  viability, T/C: 120%
Second compound 3.16 µM, first compound 0.1 µM
  viability, T/C: 133%
Second compound 3.16 µM, first compound 0.316 µM
  viability, T/C: 124%
Second compound 3.16 µM, first compound 1 µM
  viability, T/C: 110%
Second compound 10 µM, first compound 0.00316 µM
  viability, T/C: 118%
Second compound 10 µM, first compound 0.01 µM
  viability, T/C: 115%
Second compound 10 µM, first compound 0.0316 µM
  viability, T/C: 122%
Second compound 10 µM, first compound 0.1 µM
  viability, T/C: 125%
Second compound 10 µM, first compound 0.316 µM
  viability, T/C: 110%
Second compound 10 µM, first compound 1 µM
  viability, T/C: 102%

## CC1(C)CCC(Nc2ncc(C(F)(F)F)c(-c3c[nH]c4c(P(C)(C)=O)c(C#N)ccc34)n2)CN1 (stereo not drawn) + C#Cc1c(F)ccc2cc(O)cc(-c3ncc4c(N5CC6CCC(C5)N6)nc(OCC56CCCN5CC(F)C6)nc4c3F)c12
Second compound 0.0316 µM
  IC50: 16.4 nM
Second compound 0.1 µM
  IC50: 15.3 nM
Second compound 0.316 µM
  IC50: 16.5 nM
Second compound 1 µM
  IC50: 15.8 nM
Second compound 3.16 µM
  IC50: 19.2 nM
Second compound 10 µM
  IC50: 20.7 nM
[25]
  viability, T/C: 100%
[26]
  viability, T/C: 82.4%
[27]
  viability, T/C: 57.3%
[28]
  viability, T/C: 45.7%
[29]
  viability, T/C: 13.2%
[30]
  viability, T/C: 9.56%
[31]
  viability, T/C: 97.2%
[32]
  viability, T/C: 79.1%
[33]
  viability, T/C: 56.9%
[34]
  viability, T/C: 42.8%
[35]
  viability, T/C: 14.3%
[36]
  viability, T/C: 7.89%
[37]
  viability, T/C: 102%
[38]
  viability, T/C: 84.9%
[39]
  viability, T/C: 53.5%
[40]
  viability, T/C: 47.5%
[41]
  viability, T/C: 15.9%
[42]
  viability, T/C: 11.3%
[43]
  viability, T/C: 104%
[44]
  viability, T/C: 79.4%
[45]
  viability, T/C: 58%
[46]
  viability, T/C: 45.5%
[47]
  viability, T/C: 13.5%
[48]
  viability, T/C: 9.51%
[49]
  viability, T/C: 112%
[50]
  viability, T/C: 84.9%
[51]
  viability, T/C: 64.6%
[52]
  viability, T/C: 47.1%
[53]
  viability, T/C: 13.6%
[54]
  viability, T/C: 8.79%
[55]
  viability, T/C: 108%
[56]
  viability, T/C: 87.6%
[57]
  viability, T/C: 55.1%
[58]
  viability, T/C: 58.9%
[59]
  viability, T/C: 11.1%
[60]
  viability, T/C: 6.89%

## CCc1c2c(nc3ccc(O)cc13)-c1cc3c(c(=O)n1C2)COC(=O)[C@]3(O)CC + C#Cc1c(F)ccc2cc(O)cc(-c3ncc4c(N5CC6CCC(C5)N6)nc(OCC56CCCN5CC(F)C6)nc4c3F)c12
Second compound 0.0316 µM
  IC50: 11.8 nM
Second compound 0.1 µM
  IC50: 20.8 nM
Second compound 0.316 µM
  IC50: 36.6 nM
Second compound 1 µM
  IC50: 37.1 nM
Second compound 3.16 µM
  IC50: 33.1 nM
Second compound 10 µM
  IC50: 32.2 nM
[25]
  viability, T/C: 108%
[26]
  viability, T/C: 63.5%
[27]
  viability, T/C: 56.8%
[28]
  viability, T/C: 45.1%
[29]
  viability, T/C: 41.5%
[30]
  viability, T/C: 34.2%
[31]
  viability, T/C: 85.7%
[32]
  viability, T/C: 69.6%
[33]
  viability, T/C: 50.6%
[34]
  viability, T/C: 50.2%
[35]
  viability, T/C: 44.5%
[36]
  viability, T/C: 33.2%
[37]
  viability, T/C: 81.2%
[38]
  viability, T/C: 74.3%
[39]
  viability, T/C: 54%
[40]
  viability, T/C: 54%
[41]
  viability, T/C: 42.6%
[42]
  viability, T/C: 35.2%
[43]
  viability, T/C: 91.7%
[44]
  viability, T/C: 74%
[45]
  viability, T/C: 63%
[46]
  viability, T/C: 52.2%
[47]
  viability, T/C: 43.3%
[48]
  viability, T/C: 32.2%
[49]
  viability, T/C: 99%
[50]
  viability, T/C: 74.5%
[51]
  viability, T/C: 60%
[52]
  viability, T/C: 54.2%
[53]
  viability, T/C: 44.9%
[54]
  viability, T/C: 33.5%
[55]
  viability, T/C: 101%
[56]
  viability, T/C: 71%
[57]
  viability, T/C: 66.8%
[58]
  viability, T/C: 47.3%
[59]
  viability, T/C: 47.9%
[60]
  viability, T/C: 33.9%

## C=CC(=O)Nc1cc(Nc2nccc(-c3cn(C)c4ccccc34)n2)c(OC)cc1N(C)CCN(C)C + C=CC(=O)N1CCN(c2nc(OCC3CCCN3C)nc3c(F)c(-c4nc(N)cc(C)c4C(F)(F)F)c(Cl)cc23)C(C)C1
Second compound 0.00316 µM
  IC50: > 1000 nM
Second compound 0.01 µM
  IC50: > 1000 nM
Second compound 0.0316 µM
  IC50: > 1000 nM
Second compound 0.1 µM
  IC50: > 1000 nM
Second compound 0.316 µM
  IC50: > 1000 nM
Second compound 1 µM
  IC50: > 1000 nM
Second compound 0.00316 µM, first compound 0.00316 µM
  viability, T/C: 103%
Second compound 0.00316 µM, first compound 0.01 µM
  viability, T/C: 93.5%
Second compound 0.00316 µM, first compound 0.0316 µM
  viability, T/C: 101%
Second compound 0.00316 µM, first compound 0.1 µM
  viability, T/C: 99.1%
Second compound 0.00316 µM, first compound 0.316 µM
  viability, T/C: 101%
Second compound 0.00316 µM, first compound 1 µM
  viability, T/C: 82.8%
Second compound 0.01 µM, first compound 0.00316 µM
  viability, T/C: 98.9%
Second compound 0.01 µM, first compound 0.01 µM
  viability, T/C: 99.4%
Second compound 0.01 µM, first compound 0.0316 µM
  viability, T/C: 98.7%
Second compound 0.01 µM, first compound 0.1 µM
  viability, T/C: 101%
Second compound 0.01 µM, first compound 0.316 µM
  viability, T/C: 101%
Second compound 0.01 µM, first compound 1 µM
  viability, T/C: 92.2%
[1]
  viability, T/C: 106%
[2]
  viability, T/C: 101%
[3]
  viability, T/C: 92.9%
[4]
  viability, T/C: 107%
[5]
  viability, T/C: 107%
[6]
  viability, T/C: 82%
[7]
  viability, T/C: 110%
[8]
  viability, T/C: 95%
[9]
  viability, T/C: 112%
[10]
  viability, T/C: 97.7%
[11]
  viability, T/C: 96.4%
[12]
  viability, T/C: 99.6%
[13]
  viability, T/C: 112%
[14]
  viability, T/C: 103%
[15]
  viability, T/C: 101%
[16]
  viability, T/C: 107%
[17]
  viability, T/C: 102%
[18]
  viability, T/C: 89.1%
[19]
  viability, T/C: 98.4%
[20]
  viability, T/C: 97.2%
[21]
  viability, T/C: 91.8%
[22]
  viability, T/C: 94.5%
[23]
  viability, T/C: 105%
[24]
  viability, T/C: 78.8%

Reference: PubChem BioAssay AID2060895 (Molecular Pharmacology Branch, DTP, NCI, 2025)
